Values quoted from earlier work in article PMC6650409, “Modeling the binding of diverse ligands within the Ah receptor ligand binding domain” (Scientific Reports, 2019).
Substitutions are numbered along the chain they refer to.

What was measured:
Parameters in all cases: method as in PMID 21981577
S359A mutant AhR = molecular target: T1, S359A mutant AhR (Mus musculus, UniProt P30561, S359A); conditions: S359A mutation; cited from earlier work
T1 construct: made in house; host or cells: in vitro, Promega TNT Quick rabbit reticulocyte lysate
T1 sequence (P30561 10-848 S359A): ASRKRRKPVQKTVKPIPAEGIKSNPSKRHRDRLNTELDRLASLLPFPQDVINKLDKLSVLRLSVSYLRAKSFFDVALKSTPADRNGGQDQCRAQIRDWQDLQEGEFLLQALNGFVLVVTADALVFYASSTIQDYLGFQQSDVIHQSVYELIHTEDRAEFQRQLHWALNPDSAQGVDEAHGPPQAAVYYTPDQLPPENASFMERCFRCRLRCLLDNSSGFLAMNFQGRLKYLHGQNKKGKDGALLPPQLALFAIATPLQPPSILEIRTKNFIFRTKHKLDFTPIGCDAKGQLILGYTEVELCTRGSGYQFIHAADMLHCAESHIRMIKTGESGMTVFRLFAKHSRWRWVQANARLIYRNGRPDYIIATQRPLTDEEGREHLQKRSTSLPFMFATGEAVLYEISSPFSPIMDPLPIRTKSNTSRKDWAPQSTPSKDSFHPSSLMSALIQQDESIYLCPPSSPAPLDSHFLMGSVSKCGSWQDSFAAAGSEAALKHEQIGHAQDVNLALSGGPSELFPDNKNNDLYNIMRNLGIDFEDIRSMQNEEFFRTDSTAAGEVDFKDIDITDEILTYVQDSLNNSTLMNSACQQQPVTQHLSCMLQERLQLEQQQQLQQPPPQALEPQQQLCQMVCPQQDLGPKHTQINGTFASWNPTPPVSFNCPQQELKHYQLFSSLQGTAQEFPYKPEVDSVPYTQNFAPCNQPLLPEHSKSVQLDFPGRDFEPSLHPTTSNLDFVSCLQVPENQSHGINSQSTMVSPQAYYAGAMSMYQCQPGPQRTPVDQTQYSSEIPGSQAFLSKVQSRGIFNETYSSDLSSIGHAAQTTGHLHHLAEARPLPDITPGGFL

C327A mutant AhR = molecular target: T2, C327A mutant AhR (Mus musculus, UniProt P30561, C327A); conditions: C327A mutation; cited from earlier work
T2 construct: made in house; host or cells: in vitro, Promega TNT Quick rabbit reticulocyte lysate
T2 sequence (P30561 10-848 C327A): T1 sequence (P30561 10-848 S359A) with C318A, A350S

M334A mutant AhR = molecular target: T3, M334A mutant AhR (Mus musculus, UniProt P30561, M334A); conditions: M334A mutation; cited from earlier work
T3 construct: made in house; host or cells: in vitro, Promega TNT Quick rabbit reticulocyte lysate
T3 sequence (P30561 10-848 M334A): T1 sequence (P30561 10-848 S359A) with M325A, A350S

L309A mutant AhR = molecular target: T4, L309A mutant AhR (Mus musculus, UniProt P30561, L309A); conditions: L309A mutation; cited from earlier work
T4 construct: made in house; host or cells: in vitro transcription/translation (rabbit reticulocyte lysate)
T4 sequence (P30561 10-848 L309A): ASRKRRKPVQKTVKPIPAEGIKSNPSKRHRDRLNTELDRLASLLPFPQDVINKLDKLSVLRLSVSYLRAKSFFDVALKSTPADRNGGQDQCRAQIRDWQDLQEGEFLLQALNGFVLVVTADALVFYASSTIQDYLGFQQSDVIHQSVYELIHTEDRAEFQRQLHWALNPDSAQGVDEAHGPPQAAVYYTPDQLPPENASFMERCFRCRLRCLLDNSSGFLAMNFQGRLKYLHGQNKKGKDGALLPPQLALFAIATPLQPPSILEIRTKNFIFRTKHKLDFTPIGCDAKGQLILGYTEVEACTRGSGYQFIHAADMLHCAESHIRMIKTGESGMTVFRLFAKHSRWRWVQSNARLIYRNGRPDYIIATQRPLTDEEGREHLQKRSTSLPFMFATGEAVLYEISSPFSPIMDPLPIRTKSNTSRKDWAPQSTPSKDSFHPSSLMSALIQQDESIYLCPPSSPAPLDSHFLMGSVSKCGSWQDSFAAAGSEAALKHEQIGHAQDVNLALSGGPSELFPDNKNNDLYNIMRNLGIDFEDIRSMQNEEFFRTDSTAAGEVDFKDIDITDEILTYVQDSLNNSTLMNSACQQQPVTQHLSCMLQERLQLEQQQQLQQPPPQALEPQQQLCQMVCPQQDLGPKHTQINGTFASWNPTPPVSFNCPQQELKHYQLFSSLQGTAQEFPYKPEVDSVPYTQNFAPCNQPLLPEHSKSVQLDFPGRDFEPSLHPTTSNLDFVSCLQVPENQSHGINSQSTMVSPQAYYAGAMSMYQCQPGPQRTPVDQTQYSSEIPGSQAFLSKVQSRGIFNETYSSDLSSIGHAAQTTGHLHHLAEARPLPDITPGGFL
T4 sequence (P53762 whole entry partner): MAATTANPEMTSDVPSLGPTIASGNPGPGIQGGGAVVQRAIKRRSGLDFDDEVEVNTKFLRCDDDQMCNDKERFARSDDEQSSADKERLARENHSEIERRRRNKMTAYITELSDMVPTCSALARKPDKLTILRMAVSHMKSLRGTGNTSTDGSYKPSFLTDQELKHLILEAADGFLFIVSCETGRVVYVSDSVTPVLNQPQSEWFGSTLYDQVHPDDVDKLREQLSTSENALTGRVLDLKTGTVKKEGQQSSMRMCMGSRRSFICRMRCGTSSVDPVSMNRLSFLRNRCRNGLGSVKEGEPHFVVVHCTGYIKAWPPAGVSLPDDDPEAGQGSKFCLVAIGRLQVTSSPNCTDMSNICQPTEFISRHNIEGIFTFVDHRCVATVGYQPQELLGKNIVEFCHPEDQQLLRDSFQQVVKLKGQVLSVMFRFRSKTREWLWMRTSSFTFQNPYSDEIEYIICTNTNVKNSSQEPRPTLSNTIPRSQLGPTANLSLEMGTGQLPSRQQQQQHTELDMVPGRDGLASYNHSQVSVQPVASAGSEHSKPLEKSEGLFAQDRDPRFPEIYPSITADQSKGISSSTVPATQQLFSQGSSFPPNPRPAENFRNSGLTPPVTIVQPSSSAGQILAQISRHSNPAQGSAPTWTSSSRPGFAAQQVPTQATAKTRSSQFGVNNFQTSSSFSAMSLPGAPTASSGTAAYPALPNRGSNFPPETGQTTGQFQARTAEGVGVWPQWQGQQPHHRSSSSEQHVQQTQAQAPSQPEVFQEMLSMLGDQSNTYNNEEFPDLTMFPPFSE

Structure (SMILES): Clc1cc2c(cc1Cl)Oc1cc(Cl)c(Cl)cc1O2 [TCDD, 2,3,7,8-tetrachlorodibenzo-p-dioxin]
- TCDD binding activity (S359A mutant AhR): only partially affected
- TCDD binding activity (C327A mutant AhR): only partially affected
- TCDD binding activity (M334A mutant AhR): only partially affected
- TCDD binding activity (L309A mutant AhR): dramatically reduced
